Data set [1] can be described thus: Plasma unlabeled fatty acid concentrations. The class given is in vivo, human.
The format of data set [2] is in vivo, human. As to conditions: for F (turnover of esterified n-3 HUFA in plasma): Jsyn / amount in plasma total lipids; for Time first detected in plasma: after beginning infusion; for Total esterified amount in plasma at 7 h: 7 h of infusion.
For data set [3] the following is noted: compartmental modeling, humans; ref Pawlosky et al. 2001; cited from earlier work.
Where [4] appears, read: subject S01, unlabeled, mean of 17 time points, low linoleate diet.
The mark [5] stands for this setting: subject S02, unlabeled, mean of 17 time points, low linoleate diet.
Where [6] appears, read: subject S01, 8 h iv infusion of d5-ALA-albumin 0.78 mg/kg BW/hr.
Setting [7] is: subject S01, k1 x unesterified ALA 2.52 nmol/mL.
The mark [8] stands for this setting: subject S02, 8 h iv infusion of d5-ALA-albumin 0.78 mg/kg BW/hr.
[9] abbreviates: subject S02, k1 x unesterified ALA 4.74 nmol/mL.

The values below come from publication PMC6105524 (Lipids, 2018).

Where two headings read alike, the source gives them in different places.

On to `CCCCCCCCCCCCCC(=O)O` [14:0], for which the entries for the “Fatty acid concentration in plasma total lipids (mean)” value (“Fatty acid concentration” for short) in data set [1] (setting [4]) and in data set [1] (setting [5]) were 43.9 nmol/mL and 36.8 nmol/mL, respectively.
With `CCCCCCCCCCCCCCCC(=O)O` [16:0], the “Fatty acid concentration” value worked out at 1265 nmol/mL in data set [1] (setting [4]) and 1152 nmol/mL in data set [1] (setting [5]).
For `CCCCCC/C=C\CCCCCCCC(=O)O` [16:1n-7], in that order: 153 nmol/mL and 91.9 nmol/mL.
For `CCCCCCCCCCCCCCCCCC(=O)O` [18:0], in that order: 367 nmol/mL and 374 nmol/mL.
`CCCCCC/C=C/CCCCCCCCCC(=O)O` [18:1n-7]: the “Fatty acid concentration” value in data set [1] (setting [4]) came to 98.0 nmol/mL; in data set [1] (setting [5]), 104 nmol/mL.
As to `CCCCCCCC/C=C\CCCCCCCC(=O)O` [18:1n-9], the “Fatty acid concentration” value in data set [1] (in vivo) was 896 nmol/mL.
As for `CCCCC/C=C\C/C=C\C/C=C\CCCCC(=O)O` [18:3n-6], the “Fatty acid concentration” value in data set [1] (setting [4]) stood at 15.3 nmol/mL; in data set [1] (setting [5]), 12.3 nmol/mL.
As to `CCCCCCCC/C=C\CCCCCCCCCC(=O)O` [20:1n-9], the “Fatty acid concentration” value in data set [1] (setting [4]) is on record as 7.8 nmol/mL; in data set [1] (setting [5]), 9.3 nmol/mL.
The corresponding values for `CCCCC/C=C\C/C=C\CCCCCCCCCC(=O)O` [20:2n-6] are 8.6 nmol/mL and 13.6 nmol/mL.
Take `CCCCC/C=C\C/C=C\C/C=C\CCCCCCC(=O)O` [20:3n-6]: the entries for the “Fatty acid concentration” value in data set [1] (setting [4]) and in data set [1] (setting [5]) were 98.2 nmol/mL and 79.1 nmol/mL, respectively.
As for `CCCCCCCCCCCCCCCCCCCCCC(=O)O` [22:0], the entries for the “Fatty acid concentration” value in data set [1] (setting [4]) and in data set [1] (setting [5]) were 30.5 nmol/mL and 17.4 nmol/mL, respectively.
For `CCCCC/C=C\C/C=C\C/C=C\C/C=C\CCCCCC(=O)O` [22:4n-6], in that order: 9.6 nmol/mL and 8.5 nmol/mL.
As for `CCCCC/C=C\C/C=C\C/C=C\C/C=C\C/C=C\CCC(=O)O` [22:5n-6], the results for the “Fatty acid concentration” value in data set [1] (setting [4]) and in data set [1] (setting [5]) were 16.8 nmol/mL and 8.0 nmol/mL, respectively.
In the case of `CCCCCCCCCCCCCCCCCCCCCCCC(=O)O` [24:0], the “Fatty acid concentration” value in data set [1] (setting [4]) is 21.5 nmol/mL; in data set [1] (setting [5]), 15.2 nmol/mL.
`CCCCCCCC/C=C\CCCCCCCCCCCCCC(=O)O` [24:1n-9]: the “Fatty acid concentration” value in data set [1] (setting [4]) was 48.1 nmol/mL; in data set [1] (setting [5]), 21.8 nmol/mL.
Take `CC/C=C\C/C=C\C/C=C\CCCCCCCC(=O)O` [ALA, α-linolenic acid]: the “Plasma concentration of unesterified unlabeled ALA” value in data set [1] (subject S01) amounted to 2.52 µM; in data set [1] (subject S02), 4.74 µM. In addition, the results for the “Fatty acid concentration” value in data set [1] (setting [4]) and in data set [1] (setting [5]) were 24.3 nmol/mL and 33.5 nmol/mL, respectively.
Turning to `CC/C=C\C/C=C\C/C=C\C/C=C\C/C=C\CCCCCC(=O)O` [DPAn-3, docosapentaenoic acid], the “Smax (maximal first derivative of plasma total amount time-course of newly synthesized d5-n-3 HUFA)” value turned out to be 2.43 nmol/min in data set [2] (subject S01) and 4.14 nmol/min in data set [2] (subject S02). The “k1 (synthesis-secretion coefficient)” value in data set [2] (subject S01) stood at 1.44 mL/min; in data set [2] (subject S02), 2.32 mL/min. The “Time at Smax” value worked out at 94 min in data set [2] (setting [6]) and 156 min in data set [2] (setting [8]). For the same molecule, the “F (turnover of esterified n-3 HUFA in plasma)” value worked out at 8.8e-05 min⁻¹ in data set [2] (subject S01) and 0.00019 min⁻¹ in data set [2] (subject S02). Further, the “Jsyn (whole body synthesis-secretion rate from circulating unesterified 18:3n-3)” value in data set [2] (setting [7]) stood at 3.62 nmol/min; in data set [2] (setting [9]), 11.0 nmol/min. In data set [3], the “Rate of mass flow from immediate precursor” value was 0.075 µmol/day.
`CC/C=C\C/C=C\C/C=C\C/C=C\C/C=C\CCCC(=O)O` [EPA, eicosapentaenoic acid]: the “Smax (maximal first derivative of plasma total amount time-course of newly synthesized d5-n-3 HUFA)” value in data set [2] (subject S01) was 3.23 nmol/min; in data set [2] (subject S02), 2.29 nmol/min. Also, the results for the “k1 (synthesis-secretion coefficient)” value in data set [2] (subject S01) and in data set [2] (subject S02) were 1.91 mL/min and 1.29 mL/min, respectively. Further, the “Time at Smax” value in data set [2] (setting [6]) was determined as 190 min; in data set [2] (setting [8]), 215 min. In addition, the results for the “F (turnover of esterified n-3 HUFA in plasma)” value in data set [2] (subject S01) and in data set [2] (subject S02) were 7.7e-05 min⁻¹ and 0.00015 min⁻¹, respectively. Moreover, the “Jsyn (whole body synthesis-secretion rate from circulating unesterified 18:3n-3)” value in data set [2] (setting [7]) is 4.81 nmol/min; in data set [2] (setting [9]), 6.09 nmol/min. Further, the “Rate of mass flow from immediate precursor” value in data set [3] is 0.021 µmol/day.
Take `CC/C=C\C/C=C\C/C=C\C/C=C\C/C=C\CCCCCCCC(=O)O` [TPAn-3, tetracosapentaenoic acid]: the “Jsyn (whole-body synthesis-secretion rate)” value in data set [2] (both subjects) was in the range of 0.5 to 0.6 nmol/min. The “Smax (maximal first derivative of plasma total amount time-course of newly synthesized d5-n-3 HUFA)” value in data set [2] (subject S01) is 0.39 nmol/min; in data set [2] (subject S02), 0.22 nmol/min. Besides, the “k1 (synthesis-secretion coefficient)” value was found to be 0.23 mL/min in data set [2] (subject S01) and 0.12 mL/min in data set [2] (subject S02). The figures for the “Time at Smax” value in data set [2] (setting [6]) and in data set [2] (setting [8]) were 98 min and 150 min, respectively. Moreover, the “F (turnover of esterified n-3 HUFA in plasma)” value in data set [2] (subject S01) came out at 7.4e-05 min⁻¹; in data set [2] (subject S02), 0.0001 min⁻¹. Further, the “Jsyn (whole body synthesis-secretion rate from circulating unesterified 18:3n-3)” value in data set [2] (setting [7]) and in data set [2] (setting [9]) was 0.58 nmol/min in each case. For the same molecule, the “Fatty acid concentration” value in data set [1] (setting [4]) turned out to be 2.1 nmol/mL; in data set [1] (setting [5]), 2.0 nmol/mL.
Turning to `[2H]C([2H])([2H])C([2H])([2H])/C=C\C/C=C\C/C=C\CCCCCCCC(=O)O` [d5-18:3n-3, d5–17, 17, 18, 18, 18-18:3n-3, reference compound], in data set [2] (in vivo), the “Plasma concentration of unesterified d5-18:3n-3 at 6 h” value was determined as 4.37 µM and the “Time to reach steady-state plasma concentration of infused unesterified tracer” value is “about 10 min”.
Turning to `[2H]C([2H])([2H])C([2H])([2H])/C=C\C/C=C\C/C=C\C/C=C\C/C=C\CCCC(=O)O` [d5-20:5n-3], in data set [2] (both subjects), the “Time at Smax” value is listed as “about 200 min” and the “Time to achieve steady-state plasma concentration of esterified d5-HUFA” value (“Time … of esterified d5-HUFA” below) is “about 5 hr”. Besides, in data set [2] (subject S01), the “Smax (maximal first derivative of plasma total amount time-course of newly synthesized d5-n-3 HUFA)” value turned out to be 3.23 nmol/min. Besides, the “Smax (maximal first derivative of plasma total amount time-course of newly synthesized d5-n-3 HUFA)” value in data set [2] (subject S02) is on record as 2.29 nmol/min.
Regarding `[2H]C([2H])([2H])C([2H])([2H])/C=C\C/C=C\C/C=C\C/C=C\C/C=C\CCCCCC(=O)O` [d5-22:5n-3], the “Time first detected in plasma” value in data set [2] is on record as 40 min. Further, in data set [2] (both subjects), the “Time for which plasma amount increased before leveling off” value is “up to 4 h” and the “Time … of esterified d5-HUFA” value was “about 5 hr”. In addition, in data set [2] (subject S01), the “Smax (maximal first derivative of plasma total amount time-course of newly synthesized d5-n-3 HUFA)” value is 2.43 nmol/min and the “Total esterified amount in plasma at 7 h” value was 580 nmol. For the same molecule, in data set [2] (setting [6]), the “Time at Smax” value was determined as 94 min. Besides, in data set [2] (subject S02), the “Smax (maximal first derivative of plasma total amount time-course of newly synthesized d5-n-3 HUFA)” value was 4.14 nmol/min and the “Total esterified amount in plasma at 7 h” value amounted to 920 nmol. In addition, the “Time at Smax” value in data set [2] (setting [8]) came to 156 min.
Turning to `[2H]C([2H])([2H])C([2H])([2H])/C=C\C/C=C\C/C=C\C/C=C\C/C=C\C/C=C\CCC(=O)O` [d5-22:6n-3], in data set [2], the “Time first detected in plasma” value amounted to 40 min. In addition, in data set [2] (both subjects), the “Time for which plasma amount increased before leveling off” value is given as “up to 4 h” and the “Time … of esterified d5-HUFA” value is “about 5 hr”. Besides, in data set [2] (subject S01), the “Smax (maximal first derivative of plasma total amount time-course of newly synthesized d5-n-3 HUFA)” value is 0.67 nmol/min and the “Total esterified amount in plasma at 7 h” value turned out to be 148 nmol. Further, in data set [2] (subject S02), the “Smax (maximal first derivative of plasma total amount time-course of newly synthesized d5-n-3 HUFA)” value worked out at 0.21 nmol/min and the “Total esterified amount in plasma at 7 h” value stood at 44 nmol.
Regarding tetracosahexaenoic acid [THA], the “Jsyn (whole-body synthesis-secretion rate)” value in data set [2] (both subjects) lay within 0.5 to 0.6 nmol/min. For the same molecule, the “Smax (maximal first derivative of plasma total amount time-course of newly synthesized d5-n-3 HUFA)” value in data set [2] (subject S01) came to 0.41 nmol/min; in data set [2] (subject S02) it was 0.17 nmol/min. Further, the results for the “k1 (synthesis-secretion coefficient)” value in data set [2] (subject S01) and in data set [2] (subject S02) were 0.24 mL/min and 0.10 mL/min, respectively. Further, the “Time at Smax” value was 102 min in data set [2] (setting [6]) and 125 min in data set [2] (setting [8]). Further, the “F (turnover of esterified n-3 HUFA in plasma)” value came to 5.8e-05 min⁻¹ in data set [2] (subject S01) and 0.0001 min⁻¹ in data set [2] (subject S02). The “Jsyn (whole body synthesis-secretion rate from circulating unesterified 18:3n-3)” value in data set [2] (setting [7]) was 0.61 nmol/min; in data set [2] (setting [9]), 0.46 nmol/min. The results for the “Fatty acid concentration” value in data set [1] (setting [4]) and in data set [1] (setting [5]) were 2.8 nmol/mL and 1.5 nmol/mL, respectively.
